Experimental data from the CheMixHub viscosity set.
Values joined by “and” are separate entries in the source; they are usually repeats but may differ in a detail not shown here. Equal values may be shown once.

Assay: xn = mol fraction of the nth substance listed

CCCCCCC(C)O (centres undefined) + C1CCCCC1
303.15 K, 101.33 kPa
Details | viscosity [mPa·s]
x1 = 0.0999 | 0.9208
x1 = 0.2048 | 1.086
x1 = 0.303 | 1.317
x1 = 0.3982 | 1.601
x1 = 0.4667 | 1.847
x1 = 0.5235 | 2.072
x1 = 0.5347 | 2.124
x1 = 0.6961 | 2.908
x1 = 0.7992 | 3.516
x1 = 0.899 | 4.161

CCCCCCCCCC(=O)O + CCCCCCCCCCCCCCCCC
100 kPa, x2 = 0.5591
Details | viscosity [mPa·s]
298.2 K | 4.83
308.2 K | 3.6
318.2 K | 2.77

O=C(c1ccccc1)c1ccccc1 + CCCCCOC(C)=O
298.15 K, 101 kPa
Details | viscosity [mPa·s]
x1 = 0.0417 | 0.8506
x1 = 0.0472 | 0.8646

c1ccncc1 + CCO
298.15 K, 101 kPa
Details | viscosity [mPa·s]
x1 = 0.2992 | 1.034
x1 = 0.4997 | 0.9591
x1 = 0.6607 | 0.8792
x1 = 0.7996 | 0.8773

NCCNCCNCCN + CCO
313.15 K, 100 kPa
Details | viscosity [mPa·s]
x1 = 0.02 | 0.94
x1 = 0.034 | 1.1
x1 = 0.073 | 1.47
x1 = 0.17 | 2.67

O=C(Cl)c1ccccc1 + c1ccccc1
303.15 K, 101 kPa
Details | viscosity [mPa·s]
x2 = 0.1255 | 1.176
x2 = 0.2441 | 1.108
x2 = 0.3564 | 1.04
x2 = 0.4627 | 0.9726
x2 = 0.5637 | 0.9048
x2 = 0.6596 | 0.8369
x2 = 0.7509 | 0.7688
x2 = 0.8379 | 0.7005
x2 = 0.9208 | 0.632

CCCCCCCCCC(=O)O + CCCCCCCCCCCCCCCC
100 kPa, x2 = 0.6321
Details | viscosity [mPa·s]
298.2 K | 4.1
308.2 K | 3.09
318.2 K | 2.41

CCCCCCC(C)O (centres undefined) + Brc1ccccc1
viscosity [mPa·s], 101 kPa
Details | 298.15 K | 303.15 K
x2 = 0.0495 | 5.76 | 4.559
x2 = 0.1184 | 4.748 | 3.795
x2 = 0.1814 | 4.027 | 3.25
x2 = 0.2506 | 3.367 | 2.769
x2 = 0.2943 | 3.034 | 2.532
x2 = 0.3711 | 2.576 | 2.178
x2 = 0.4297 | 2.285 | 1.961
x2 = 0.5077 | 1.983 | 1.738
x2 = 0.5834 | 1.766 | 1.554
x2 = 0.6524 | 1.587 | 1.418
x2 = 0.7315 | 1.41 | 1.275
x2 = 0.8025 | 1.3 | 1.174
x2 = 0.8722 | 1.192 | 1.093
x2 = 0.9483 | 1.107 | 1.03

CCCCCCC(C)O (centres undefined) + CCCCCCCCCCCC
298.15 K, 101 kPa
Details | viscosity
x1 = 0.0003 | 1.337 mPa·s
x2 = 0.0554 | 5.513 mPa·s and 5.51 mPa·s
x2 = 0.0999 | 4.916 mPa·s and 4.92 mPa·s
x2 = 0.1554 | 4.254 mPa·s and 4.25 mPa·s
x2 = 0.1998 | 3.786 mPa·s and 3.79 mPa·s
x2 = 0.2555 | 3.272 mPa·s and 3.27 mPa·s
x2 = 0.2998 | 2.916 mPa·s and 2.92 mPa·s
x2 = 0.3554 | 2.532 mPa·s and 2.53 mPa·s
x2 = 0.3998 | 2.27 mPa·s and 2.27 mPa·s
x2 = 0.4554 | 1.995 mPa·s and 2 mPa·s
x2 = 0.4999 | 1.813 mPa·s and 1.81 mPa·s
x2 = 0.5555 | 1.627 mPa·s and 1.63 mPa·s
x2 = 0.5998 | 1.508 mPa·s and 1.51 mPa·s
x2 = 0.6555 | 1.391 mPa·s and 1.39 mPa·s
x2 = 0.6998 | 1.32 mPa·s and 1.32 mPa·s
x2 = 0.7554 | 1.253 mPa·s and 1.25 mPa·s
x2 = 0.7998 | 1.213 mPa·s and 1.21 mPa·s
x2 = 0.8555 | 1.176 mPa·s and 1.18 mPa·s
x2 = 0.8999 | 1.152 mPa·s and 1.15 mPa·s
x2 = 0.9555 | 1.124 mPa·s and 1.12 mPa·s

C[N+](C)(C)CCO.NCCS(=O)(=O)[O-] + O
viscosity [mPa·s], 100 kPa
Details | x1 = 3.04e-05 | x1 = 5.1e-05 | x1 = 7.04e-05 | x1 = 9.62e-05 | x1 = 0.0001978 | x1 = 0.0004282 | x1 = 0.0006357 | x1 = 0.0009005 | x1 = 0.001375 | x1 = 0.001632
293.15 K | 1.014 | 1.017 | 1.019 | 1.022 | 1.028 | 1.036 | 1.041 | 1.046 | 1.052 | 1.054
298.15 K | 0.904 | 0.907 | 0.91 | 0.913 | 0.922 | 0.932 | 0.939 | 0.946 | 0.954 | 0.958
303.15 K | 0.811 | 0.814 | 0.817 | 0.82 | 0.828 | 0.839 | 0.846 | 0.853 | 0.861 | 0.863
308.15 K | 0.737 | 0.742 | 0.745 | 0.749 | 0.76 | 0.771 | 0.776 | 0.781 | 0.786 | 0.789
313.15 K | 0.675 | 0.68 | 0.684 | 0.688 | 0.699 | 0.709 | 0.715 | 0.72 | 0.723 | 0.724

c1c[nH]cn1 + CCCC[N+](CCCC)(CCCC)CCCC.[Br-]
101.3 kPa, x2 = 0.3
Details | viscosity [mPa·s]
293.15 K | 810
296.15 K | 540
303.15 K | 314
313.15 K | 144.8
323.15 K | 75

CN(C)CCN(C)C + O
viscosity [mPa·s], 100 kPa
Details | 293.15 K | 303.15 K | 313.15 K | 323.15 K
x1 = 0.001 | 1.041 | 0.83 | 0.679 | 0.564
x1 = 0.01 | 1.375 | 1.143 | 0.941 | 0.732
x1 = 0.025 | 2.406 | 1.734 | 1.303 | 1.012
x1 = 0.05 | 5.033 | 3.269 | 2.032 | 1.409
x1 = 0.075 | 8.363 | 4.972 | 2.688 | 1.769
x1 = 0.1 | 11.53 | 6.033 | 3.292 | 2.114
x1 = 0.2 | 12.82 | 7.744 | 4.885 | 3.185
x1 = 0.3 | 7.906 | 5.945 | 4.23 | 3.011
x1 = 0.399 | 3.497 | 2.56 | 1.9 | 1.45
x1 = 0.5 | 1.887 | 1.456 | 1.117 | 0.904
x1 = 0.601 | 1.344 | 1.064 | 0.853 | 0.69
x1 = 0.7 | 1.066 | 0.881 | 0.724 | 0.585
x1 = 0.8 | 0.859 | 0.733 | 0.625 | 0.52
x1 = 0.9 | 0.715 | 0.63 | 0.554 | 0.473
